The structures appear in SMILES notation. In brackets after ≈: the same amount, converted by molar mass.

As usually defined, the IC50 is the concentration needed to halve the response being measured. A lower IC50 goes with higher potency.

One assay relates to HepG2. Briefly: Antitumor activity against human HepG2 cells after 48 hrs by Sulphorhodamine-B assay. Particulars: HepG2, 48 h. For orientation: Sulforhodamine B stains cellular protein and so reports cell mass.
The subject of a further assay is MCF7. The assay can be described thus: Antitumor activity against human MCF7 cells after 48 hrs by Sulphorhodamine-B assay. As to conditions: MCF7, 48 h.
Another assay deals with HeLa. Briefly: Antitumor activity against human HeLa cells after 48 hrs by Sulphorhodamine-B assay.

Regarding `Cc1ccc(-c2nc(SCC(=O)Nc3ccccc3)c3cc(Cl)ccc3n2)cc1`, the IC50 worked out at 14.3 µg/mL (≈ 34.1 µM) in the assay on HepG2, 4.78 µg/mL (≈ 11.4 µM) in the assay with MCF7 and 11.7 µg/mL (≈ 27.9 µM) with HeLa.

With `Cc1ccc(-c2nc(S(=O)(=O)Cc3ccccc3)c3cc(Cl)ccc3n2)cc1`, the 50% inhibitory concentration (IC50) in the assay with HepG2 is 7.21 µg/mL (≈ 17.6 µM); in the assay on MCF7 it was 3.96 µg/mL (≈ 9.68 µM); in the assay on HeLa, 7.01 µg/mL (≈ 17.1 µM).

For the molecule `Cc1ccc(C(=O)Nc2ccc(Cl)cc2C(=S)NN)cc1`, the IC50 worked out at 5.59 µg/mL (≈ 17.5 µM) in the assay on HepG2, 3.35 µg/mL (≈ 10.5 µM) with MCF7 and 4.98 µg/mL (≈ 15.6 µM) with HeLa.

On to `Cc1ccc(-c2nc3ccc(Cl)cc3c(=S)[nH]2)cc1`, for which the figures for the half-inhibitory concentration (IC50) in the assay with HepG2, with MCF7 and in the assay on HeLa were 7.01 µg/mL (≈ 24.4 µM), 3.35 µg/mL (≈ 11.7 µM) and 4.57 µg/mL (≈ 15.9 µM), respectively.

As for `Cc1ccc(-c2nc(N)c3cc(Cl)ccc3n2)cc1`, the IC50 turned out to be 14.5 µg/mL (≈ 53.8 µM) in the assay with HepG2, 3.76 µg/mL (≈ 13.9 µM) with MCF7 and 3.56 µg/mL (≈ 13.2 µM) with HeLa.

`Cc1ccc(-c2nc3ccc(Cl)cc3c(=O)o2)cc1`: the half-maximal inhibitory concentration (IC50) amounted to 22.5 µg/mL (≈ 82.8 µM) with HepG2, 10.5 µg/mL (≈ 38.6 µM) in the assay with MCF7 and 8.23 µg/mL (≈ 30.3 µM) in the assay on HeLa.

For the molecule `Cc1ccc(-c2nc3ccc(Cl)cc3c(=O)n2N)cc1`, the IC50 in the assay on HepG2 was determined as 18.4 µg/mL (≈ 64.4 µM); in the assay with MCF7, 5.39 µg/mL (≈ 18.9 µM); in the assay with HeLa it was 12.1 µg/mL (≈ 42.3 µM).

In the case of `Cc1ccc(-c2nc(SCC#N)c3cc(Cl)ccc3n2)cc1`, the figures for the IC50 in the assay on HepG2, in the assay on MCF7 and in the assay with HeLa were 4.37 µg/mL (≈ 13.4 µM), 3.35 µg/mL (≈ 10.3 µM) and 3.76 µg/mL (≈ 11.5 µM), respectively.

Regarding `Cc1ccc(-c2nc3ccc(Cl)cc3c(=O)n2C)cc1`, the concentration for half-maximal inhibition (IC50) with HepG2 is 4.17 µg/mL (≈ 14.6 µM); with MCF7, 3.35 µg/mL (≈ 11.8 µM); in the assay with HeLa, 4.37 µg/mL (≈ 15.3 µM).

For `Cc1ccc(-c2nc(Sc3ncccc3[N+](=O)[O-])c3cc(Cl)ccc3n2)cc1`, the figures for the half-maximal inhibitory concentration (IC50) in the assay on HepG2, in the assay with MCF7 and in the assay with HeLa were 5.59 µg/mL (≈ 13.7 µM), 3.56 µg/mL (≈ 8.71 µM) and 5.39 µg/mL (≈ 13.2 µM), respectively.

Turning to `Cc1ccc(-c2nc(SCC(N)=O)c3cc(Cl)ccc3n2)cc1`, the IC50 with HepG2 is 9.45 µg/mL (≈ 27.5 µM); in the assay on MCF7 it was 5.59 µg/mL (≈ 16.3 µM); with HeLa it was 4.98 µg/mL (≈ 14.5 µM).

On to `Cc1ccc(-c2nc(NC(=O)c3ccccc3)c3cc(Cl)ccc3n2)cc1`, for which the half-inhibitory concentration (IC50) was 17.5 µg/mL (≈ 46.8 µM) with HepG2, 16.1 µg/mL (≈ 43.1 µM) in the assay with MCF7 and 16.2 µg/mL (≈ 43.3 µM) in the assay on HeLa.

Regarding `Cc1ccc(-c2nc3ccc(Cl)cc3c(=O)[nH]2)cc1`, the results for the concentration for half-maximal inhibition (IC50) in the assay with HepG2, in the assay with MCF7 and in the assay with HeLa were 9.86 µg/mL (≈ 36.4 µM), 4.98 µg/mL (≈ 18.4 µM) and 10.1 µg/mL (≈ 37.3 µM), respectively.

Take `C=CCSc1nc(-c2ccc(C)cc2)nc2ccc(Cl)cc12`: the IC50 with HepG2 is 23.9 µg/mL (≈ 73.1 µM); with MCF7, 8.03 µg/mL (≈ 24.6 µM); in the assay on HeLa it was 9.66 µg/mL (≈ 29.6 µM).

Turning to `Cc1ccc(-c2nc(SCC(=O)Nc3ccc(F)cc3)c3cc(Cl)ccc3n2)cc1`, the IC50 came to 18.4 µg/mL (≈ 42 µM) in the assay on HepG2, 14.7 µg/mL (≈ 33.6 µM) in the assay on MCF7 and 10.5 µg/mL (≈ 24 µM) in the assay on HeLa.

`Cc1ccc(-c2nc(NO)c3cc(Cl)ccc3n2)cc1`: the half-inhibitory concentration (IC50) with HepG2 was 23.1 µg/mL (≈ 80.8 µM); in the assay with MCF7, 6.81 µg/mL (≈ 23.8 µM); with HeLa, 12.7 µg/mL (≈ 44.4 µM).

On to `Cc1ccc(-c2nc(SCCO)c3cc(Cl)ccc3n2)cc1`, for which the IC50 with HepG2 was 9.04 µg/mL (≈ 27.3 µM); in the assay with MCF7, 3.76 µg/mL (≈ 11.4 µM); in the assay on HeLa, 9.25 µg/mL (≈ 28 µM).

Regarding `Cc1ccc(-c2nc(SCc3ccccc3)c3cc(Cl)ccc3n2)cc1`, the results for the IC50 with HepG2, with MCF7 and in the assay on HeLa were 18.4 µg/mL (≈ 48.8 µM), 9.66 µg/mL (≈ 25.6 µM) and 11.3 µg/mL (≈ 30 µM), respectively.

As for `COc1cccc2c1C(=O)c1c(O)c3c(c(O)c1C2=O)C[C@@](O)(C(=O)CO)C[C@@H]3O[C@H]1C[C@H](N)[C@H](O)[C@H](C)O1` [DOXORUBICIN], the half-maximal inhibitory concentration (IC50) in the assay on HepG2 stood at 4.57 µg/mL (≈ 8.41 µM); in the assay with MCF7, 3.76 µg/mL (≈ 6.92 µM); in the assay on HeLa, 3.64 µg/mL (≈ 6.7 µM).

As to `Cc1ccc(-c2nc3ccc(Cl)cc3c(=S)n2N)cc1`, the concentration for half-maximal inhibition (IC50) worked out at 17 µg/mL (≈ 56.3 µM) with HepG2, 9.25 µg/mL (≈ 30.6 µM) in the assay with MCF7 and 14 µg/mL (≈ 46.4 µM) in the assay on HeLa.

For the molecule `Cc1ccc(-c2nc3ccc(Cl)cc3c(=S)o2)cc1`, the IC50 with HepG2 is 11.1 µg/mL (≈ 38.6 µM); in the assay with MCF7 it was 5.18 µg/mL (≈ 18 µM); in the assay with HeLa, 13.3 µg/mL (≈ 46.2 µM).

As for `Cc1ccc(NC(=O)CSc2nc(-c3ccc(C)cc3)nc3ccc(Cl)cc23)cc1`, the IC50 in the assay on HepG2 is 18.8 µg/mL (≈ 43.3 µM); in the assay on MCF7 it was 5.79 µg/mL (≈ 13.3 µM); with HeLa it was 12.3 µg/mL (≈ 28.3 µM).

For the molecule `Cc1ccc(-c2nc(NOC(=O)c3ccccc3)c3cc(Cl)ccc3n2)cc1`, the IC50 was 12.1 µg/mL (≈ 31 µM) with HepG2, 5.59 µg/mL (≈ 14.3 µM) in the assay on MCF7 and 5.18 µg/mL (≈ 13.3 µM) with HeLa.

Regarding `Cc1ccc(-c2nc(NN)c3cc(Cl)ccc3n2)cc1`, the 50% inhibitory concentration (IC50) in the assay with HepG2 is 4.17 µg/mL (≈ 14.6 µM); in the assay with MCF7, 3.76 µg/mL (≈ 13.2 µM); with HeLa, 3.98 µg/mL (≈ 14 µM).

For the molecule `Cc1ccc(C(=O)Nc2ccc(Cl)cc2C(=O)O)cc1`, the values for the IC50 in the assay with HepG2, in the assay with MCF7 and in the assay with HeLa were 15.9 µg/mL (≈ 55.1 µM), 14.7 µg/mL (≈ 50.7 µM) and 18.9 µg/mL (≈ 65.2 µM), respectively.

With `Cc1ccc(C(=O)Nc2ccc(Cl)cc2C(N)=O)cc1`, the IC50 in the assay on HepG2 was 21 µg/mL (≈ 72.7 µM); in the assay with MCF7, 5.39 µg/mL (≈ 18.7 µM); in the assay on HeLa, 8.23 µg/mL (≈ 28.5 µM).

For the molecule `CCOc1ccc(NC(=O)CSc2nc(-c3ccc(C)cc3)nc3ccc(Cl)cc23)cc1`, the half-maximal inhibitory concentration (IC50) was 5.99 µg/mL (≈ 12.9 µM) with HepG2, 15.8 µg/mL (≈ 34.1 µM) with MCF7 and 10.1 µg/mL (≈ 21.8 µM) in the assay on HeLa.

Take `CSc1nc(-c2ccc(C)cc2)nc2ccc(Cl)cc12`: the IC50 in the assay with HepG2 turned out to be 13.3 µg/mL (≈ 44.2 µM); with MCF7 it was 8.64 µg/mL (≈ 28.7 µM); in the assay on HeLa, 14.7 µg/mL (≈ 48.9 µM).

(Values after ChEMBL document CHEMBL1240450, “Design, synthesis and biological evaluation of novel quinazoline derivatives as potential antitumor agents: molecular docking study” (Eur J Med Chem, 2010).)
